Patent publication US20120094894A1, “ANTIDIABETIC MEDICATIONS COMPRISING A DPP-4 INHIBITOR (LINAGLIPTIN) OPTIONALLY IN COMBINATION WITH OTHER ANTIDIABETICS” (BOEHRINGER INGELHEIM INTERNATIONAL GMBH, priority 2009, published 2012)

How the values were obtained:
DIO mice [1] = assay: Blood glucose following OGTT (AUC) in diet-induced obesity model; format: in vivo; conditions: 4 weeks, p<0.01
ob/ob mice [2] = assay: Blood glucose AUC in ob/ob mice after 14 d linagliptin; conditions: 3 mg/kg/d
ob/ob mice [3] = assay: Blinded histological scoring of liver (fat content, markers of inflammation) in ob/ob mice; conditions: 3 mg/kg/d, 14 d, n=9, p<0.01 vs. control 3±0.18
DIO mice [4] = assay: Liver fat content by magnetic resonance spectroscopy (MRS) in diet-induced obesity model; format: in vivo
From the text: Hepatic steatosis is a hallmark of patients with type 2 diabetes and underlies the pathogenesis of non-alcoholic fatty liver disease (NAFLD). Linagliptin is a selective and non-renal excreted inhibitor of dipeptidyl peptidase-4 (DPP-4). […]. Liver lipid content is detected by magnetic resonance spectroscopy (MRS) in vivo and ex vivo by analysis of liver triglycerides. […]. […] A significant reduction of liver fat content (MRS) is visible as early as 2 weeks on treatment. The correlation between liver lipid content as measured by MRS and hepatic triglyceride levels as measured ex vivo is r2=0.565 (p<0.0001).

[5] = metformin on its own, in the diabetic; cited from earlier work

SMILES	Blood glucose levels following an OGTT (AUC) suppressed (DIO mice [1]; 3 mg/kg/d)	Blood glucose levels following an OGTT (AUC) suppressed (DIO mice [1]; 30 mg/kg/d)	Blood glucose AUC reduction (ob/ob mice [2])	Histological score (hepatic steatosis and inflammation) (ob/ob mice [3])	Time on treatment at which significant reduction of liver fat content (MRS) is visible (DIO mice [4]; DIO mice)	Liver fat content (MRS detection) (DIO mice [4]; DIO mice fed 2 or 3 months, 30 mg/kg/d, and 3 mg/kg/d in 3 month fed mice, 4 weeks)	Average improvement in the HbA1c value [5]
CC#CCn1c(N2CCC[C@@H](N)C2)nc2c1c(=O)n(Cc1nc(C)c3ccccc3n1)c(=O)n2C [linagliptin, 1-[(4-methyl-quinazolin-2-yl)methyl]-3-methyl-7-(2-butyn-1-yl)-8-(3-(R)-amino-piperidin-1-yl)-xanthine]	16%-20%	20%-26%	25%	2.2±0.13	2 weeks	reduced significantly	
CN(C)C(=N)N=C(N)N [metformin]							1.0-1.5%
